Where two headings read alike, the source gives them in different places.
Assays:
poliovirus (PV1) = type: cell-based, Poliovirus-1
coliphage MS2 = type: cell-based, coliphage MS2 (ATCC 15597-B1); conditions: for log10 reduction of MS2 / reduction of MS2: in NaCl, UV light
HAV = type: cell-based, hepatitis A virus, strain HM175; conditions: for reduction of HAV: in plasma
Klebsiella oxytoca = assay: Inactivation of Klebsiella oxytoca in human plasma; type: cell-based; conditions: 10^−5 M with light (FIG. 7)
E. coli B [1] = type: cell-based, Escherichia coli B (ATCC 11303); conditions: for log10 reduction of E. coli B / percentage reduction of E. coli B: 10^−3 M in NaCl, 365 nm UV; for log10 reduction of Escherichia coli B / percentage reduction of Escherichia coli B: 365 nm light
Escherichia coli B = assay: Initial studies: inactivation of Escherichia coli B with and without aeration of the medium; type: cell-based
From the text: Light alone, or porphyrin alone, were ineffective.

[2] = tested on: Chinese Hamster Ovary (CHO) cells
E. coli B [3] = assay: Inactivation of E. coli B on porphyrin-containing cellulose acetate membranes; type: cell-based, Escherichia coli B (ATCC 11303); conditions: cellulose acetate membranes containing the porphyrin, UV light, 100 minutes
Protocol: Cultures of E. coli B (ATCC 11303) were grown the day before an experiment to log phase growth in 50 milliliters of tryptic soy broth (TSB) followed by centrifugation at 3000 rpm for 10 minutes and at 4° C. The supernatant was drawn off and discarded and pellets were resuspended in 10 mL of 0.2 M phosphate buffered saline (PBS; pH 7.2). The centrifugation-resuspension process was repeated for a total of three times. Preparations were kept at 4° C. until ready for use. Bacterial cultures were assayed on tryptic soy agar (TSA) by spot or spread plating duplicate 0.04 to 0.1 ml volumes of the serially diluted preparation onto the agar plates, and was enumerated via colony counts after incubation overnight at 44.5° C. Results are expressed as cfu/ml. On the day of an experiment, the stock preparation was serially diluted in PBS to a target concentration of about […] E. coli cells per milliliter for use on membranes and in solution, respectively. Duplicate 0.1 ml volumes of the experimental samples were spread plated on TSA and incubated overnight at 44.5° C.
When cellulose acetate membranes containing protoporphyrin IX (disodium salt) were exposed to UV light, E. coli B was inactivated by 0.3 log10 cfu/ml in 100 minutes and by about 1.0 log10 (90%) in 300 minutes (FIG. 8).

[4] = 10^−4 M, another experiment (controls 193)
[5] = 10^−4 M, six days, first experiment (controls 271)
[6] = 10^−5 M, another experiment (controls 193)
[7] = 10^−5 M, six days, first experiment (controls 271)

**Q.** For `C[n+]1ccc(-c2c3nc(c(-c4cc[n+](C)cc4)c4ccc([nH]4)c(-c4cc[n+](C)cc4)c4nc(c(-c5cc[n+](C)cc5)c5ccc2[nH]5)C=C4)C=C3)cc1.Cc1ccc(S(=O)(=O)[O-])cc1.Cc1ccc(S(=O)(=O)[O-])cc1.Cc1ccc(S(=O)(=O)[O-])cc1.Cc1ccc(S(=O)(=O)[O-])cc1` [TMPyP4, tetrakis (N-methyl-4-pyridiniumyl) porphine tetratosylate], which “poliovirus (PV1) in the absence of light” value (poliovirus (PV1)) is on record?
**A.** unaffected

**Q.** And the “MS2 incubated in the dark, infectivity assay” value (coliphage MS2; 10^−3 M in PBS, dark)?
**A.** not detected

**Q.** And the “log10 reduction of MS2” value (coliphage MS2; 1 minute)?
**A.** 0.3 log10

**Q.** And the “reduction of MS2” value (coliphage MS2; 1 minute)?
**A.** 50%

**Q.** What about the “log10 reduction of MS2” value (coliphage MS2; 10 minutes) of the same compound?
**A.** 0.9 log10

**Q.** And the “reduction of MS2” value (coliphage MS2; 10 minutes)?
**A.** 87%

**Q.** And the “log10 reduction of MS2” value (coliphage MS2; 60 minutes)?
**A.** > 3.8 log10

**Q.** And the “reduction of MS2” value (coliphage MS2; 60 minutes)?
**A.** > 99.98%

**Q.** What about the “MS2 in the absence of light” value (coliphage MS2; no light (FIG. 3)) of the same compound?
**A.** unaffected

**Q.** What about the “MS2 in porphyrin/plasma mixture not exposed to LWUV” value (coliphage MS2; plasma, no LWUV) of the same compound?
**A.** not detectable

**Q.** What about the “inactivation of HAV in water” value (HAV; 10^−5M in water, light, 30 min (FIG. 5)) of the same compound?
**A.** greater than 3 logs

**Q.** And the “inactivation of Klebsiella oxytoca” value (Klebsiella oxytoca)?
**A.** over 5 log10

**Q.** What about the “log10 reduction of E. coli B” value (E. coli B [1]; 1 minute) of the same compound?
**A.** 1.7 log10

**Q.** What about the “percentage reduction of E. coli B” value (E. coli B [1]; 1 minute) of the same compound?
**A.** 98%

**Q.** And the “log10 reduction of E. coli B” value (E. coli B [1]; 10 minutes)?
**A.** 2.4 log10

**Q.** What about the “percentage reduction of E. coli B” value (E. coli B [1]; 10 minutes) of the same compound?
**A.** 99.6%

**Q.** What about the “log10 reduction of E. coli B” value (E. coli B [1]; 30 minutes) of the same compound?
**A.** 3.7 log10

**Q.** What about the “percentage reduction of E. coli B” value (E. coli B [1]; 30 minutes) of the same compound?
**A.** 99.98%

**Q.** And the “log10 reduction of E. coli B” value (E. coli B [1]; 90 minutes)?
**A.** > 5.9 log10

**Q.** And the “E. coli B incubated in the dark, infectivity assay” value (E. coli B [1]; 10^−3 M in PBS, dark)?
**A.** not detected

**Q.** And the “infectivity of E. coli B after treatment” value (E. coli B [1]; 10^−5 M in PBS, with or without light, one minute (FIG. 9))?
**A.** decreased below detection limits

**Q.** What about the “inactivation of Escherichia coli B” value (Escherichia coli B; 30 minutes, medium aerated by sparging with air) of the same compound?
**A.** over 3.7 log

**Q.** And the “inactivation of Escherichia coli B, medium not aerated” value (Escherichia coli B; medium not aerated)?
**A.** No inactivation

**Q.** What about the “effect of porphyrin alone on Escherichia coli B” value (Escherichia coli B; porphyrin alone, without light) of the same compound?
**A.** ineffective

**Q.** What about the CHO colony count [2, 4] of the same compound?
**A.** no colony forming units detected

**Q.** And the CHO colony count [2, 5]?
**A.** no cells could be detected

**Q.** What about the CHO colony count [2, 6] of the same compound?
**A.** 183 cfu/well

**Q.** What about the CHO colony count [2, 7] of the same compound?
**A.** 322 cfu/well

**Q.** `Cl.Cl.O=S(=O)(O)c1ccc(-c2c3nc(c(-c4ccc(S(=O)(=O)O)cc4)c4ccc([nH]4)c(-c4ccc(S(=O)(=O)O)cc4)c4nc(c(-c5ccc(S(=O)(=O)O)cc5)c5ccc2[nH]5)C=C4)C=C3)cc1` [TPPS4, meso-tetra-(4-sulfonatophenyl)-porphine dihydrochloride] was tested. Which “MS2 in the absence of light” value (coliphage MS2) did it give?
**A.** unaffected

**Q.** And the “coliphage MS2 after 10 minutes of contact” value (coliphage MS2)?
**A.** unaffected

**Q.** What about the “inactivation of coliphage MS2 in plasma” value (coliphage MS2) of the same compound?
**A.** about 3 logs

**Q.** What about the “initial infectious test microbes remaining at the end of each experimental period” value (coliphage MS2) of the same compound?
**A.** approximately 100%

**Q.** What about the “loss of infectivity without UV light” value (coliphage MS2) of the same compound?
**A.** no loss of infectivity

**Q.** And the “inactivation of HAV in plasma” value (HAV)?
**A.** about 1 log

**Q.** And the “inactivation of HAV in water” value (HAV)?
**A.** 2 logs

**Q.** And the “reduction of HAV in plasma” value (HAV)?
**A.** 2 logs

**Q.** And the “log10 reduction of Escherichia coli B” value (E. coli B [1]; 10^−5 M in PBS, 1 minute)?
**A.** 0.6 log10

**Q.** And the “percentage reduction of Escherichia coli B” value (E. coli B [1]; 10^−5 M in PBS, 1 minute)?
**A.** 75%

**Q.** What about the “log10 reduction of Escherichia coli B” value (E. coli B [1]; 10^−5 M in PBS, 10 minutes) of the same compound?
**A.** 1.6 log10

**Q.** What about the “percentage reduction of Escherichia coli B” value (E. coli B [1]; 10^−5 M in PBS, 10 minutes) of the same compound?
**A.** 97%

**Q.** And the “log10 reduction of Escherichia coli B” value (E. coli B [1]; 10^−5 M in PBS, 30 minutes)?
**A.** > 5.5 log10

**Q.** What about the “loss of infectivity of E. coli B in the absence of long-wavelength UV light” value (E. coli B [1]; porphyrin without long-wavelength UV light) of the same compound?
**A.** did not result in any loss of infectivity

**Q.** And the CHO colony count [2, 4]?
**A.** 189 cfu/well

**Q.** What about the CHO colony count [2, 5] of the same compound?
**A.** 320 cfu/well

**Q.** And the CHO colony count [2, 7]?
**A.** 310 cfu/well

**Q.** How did the “reduction of HAV” value (HAV; 1 minute (first of five values)) turn out when `CCCC[n+]1ccc(-c2c3nc(c(-c4cc[n+](CCCC)cc4)c4ccc([nH]4)c(-c4cc[n+](CCCC)cc4)c4nc(c(-c5cc[n+](CCCC)cc5)c5ccc2[nH]5)C=C4)C=C3)cc1` [TPyPH2(N-Bu), tetrakis (4-n-butylpyridiniumyl) porphyrin] was run?
**A.** 0.1 log10

**Q.** What about the “reduction of HAV” value (HAV; 10 minutes (second of five values)) of the same compound?
**A.** 1.5 log10

**Q.** And the “reduction of HAV” value (HAV; 30 minutes (third of five values))?
**A.** 1.6 log10

**Q.** And the “reduction of HAV” value (HAV; 90 minutes (last of five values))?
**A.** > 3.3 log10

**Q.** What about the “reduction of HAV” value (HAV; fourth of five values, its time is not given) of the same compound?
**A.** 2.7 log10

**Q.** What about the CHO colony count [2, 4] of the same compound?
**A.** no colony forming units detected

**Q.** And the CHO colony count [2, 6]?
**A.** 186 cfu/well

**Q.** How did the “inactivation of E. coli B” value (E. coli B [3]) turn out when `C=CC1=C(C)c2cc3[nH]c(cc4nc(cc5[nH]c(cc1n2)c(C)c5CCC(=O)O)C(CCC(=O)O)=C4C)c(C)c3C=C` [protoporphyrin IX] was run?
**A.** 0.3 log10 cfu/ml

Reference: patent publication US20020022215A1 (priority 2000, published 2002)
